Assay results taken from ChEMBL document CHEMBL1255553, “Unusual antimalarial meroditerpenes from tropical red macroalgae” (Bioorg Med Chem Lett, 2010).
pIC50: −log10 of the molar value. Converted amounts (≈) assume the structure as drawn.

System: Mycobacterium tuberculosis
Test: Antimicrobial activity against vancomycin-resistant Mycobacterium tuberculosis
Type: functional, organism-based

SMILES	MIC [µM]	pIC50
CC1=C2Cc3cc(ccc3O)C(=O)O[C@H](C(C)(C)Br)CC[C@](C)(O)[C@H](Br)CC[C@]2(C)[C@@H](Br)CC1	11 (≈ 7.32 µg/mL)	–
CC(C)=CCC[C@@](C)(O)[C@@H]1CC/C(C)=C/CC/C(C)=C/Cc2cc(ccc2O)C(=O)O1 [CALLOPHYCOLIDE A]	12 (≈ 5.12 µg/mL)	–
Cc1cc(O)cc(CC[C@](C)(O)CCC[C@H](C)CCC[C@H](C)CCCC(C)C)c1O	–	< 4.00
CC1=C2Cc3cc(ccc3O)C(=O)O[C@H](C(C)(C)O)CC[C@]3(C)O[C@H]3C/C=C(\C)C2CC1 (some centres undefined)	> 100	–
